In series [1] the test system is Wnt/β-catenin pathway. Description: Wnt/β-catenin pathway inhibitory activity: cytoplasmic β-catenin by western blot in Wnt3a-CM treated HEK293 cells. It counts as cell-based, human. As to conditions: Wnt3a-CM, 15 hours. As for the experimental part:
HEK293 cells (human embryonic kidney cells) and Wnt3a-secreting L cells were obtained from the ATCC (American Type Culture Collection, USA) and were cultured in DMEM (Dulbecco's modified Eagle's medium) supplemented with 10% FBS (fetal bovine serum), 120 μg/mL penicillin and 200 μg/mL streptomycin.
Wnt3a-CM (Wnt3a-conditioned medium) was prepared by culturing Wnt3a-secreting L cells in DMEM supplemented with 10% [v/v] FBS (fetal bovine serum) for 4 days and recovering the DMEM medium and sterilizing by filtering through a 0.22-μm filter. Then, after adding a fresh DMEM (supplemented with 10% [v/v] FBS) medium to the cells and culturing for 3 days, the medium was recovered by the same method and then combined with the previously prepared Wnt3a-CM.
After treating HEK293 cells with the Wnt3a-CM, the compound of Preparation Example 30 or the compound of Preparation Example 31 (10, 20 or 40 μM) for 15 hours and extracting cytoplasmic proteins from the cells, the amount of β-catenin regulating the CRT (β-catenin response transcription) of the Wnt/β-catenin pathway in the cells was investigated by western blot using a β-catenin antibody (BD Transduction Laboratories, USA) and the ECL system (Santa Cruz Biotechnology).
The Wnt/β-catenin pathway inhibitory activity of the Preparation Example 32 compound was evaluated in the same manner as in Example <1-1>. Briefly, after treating HEK293 cells with the Wnt3a-CM or the compound of Preparation Example 32 (10 or 20 μM) for 15 hours and extracting cytoplasmic proteins from the cells, the amount of β-catenin regulating the CRT (β-catenin response transcription) of the Wnt/β-catenin pathway in the cells was investigated by western blot using a β-catenin antibody (BD Transduction Laboratories, USA) and the ECL system (Santa Cruz Biotechnology).
Background: Immunoblotting shows a protein as a band on a membrane.

Series [2] deals with Wnt/β-catenin pathway. Description: Wnt/β-catenin pathway inhibitory activity: cytoplasmic β-catenin by western blot in Wnt3a-CM treated ARPE-19 cells. It counts as cell-based. To be noted: ARPE-19 human retinal epithelial cells, Wnt3a-CM, compound 3 or 6 μM, 24 hours. As for the experimental part: ARPE-19 cells (human retinal epithelial cells) and Wnt3a-secreting L cells were obtained from the ATCC (American Type Culture Collection, USA) and were cultured in DMEM (Dulbecco's modified Eagle's medium) supplemented with 10% FBS, 120 μg/mL penicillin and 200 μg/mL streptomycin. Wnt3a-CM (Wnt3a-conditioned medium) was prepared by culturing Wnt3a-secreting L cells in DMEM supplemented with 10% [v/v] FBS (fetal bovine serum) for 4 days and recovering the DMEM medium and sterilizing by filtering through a 0.22-μm filter. Then, after adding fresh DMEM (supplemented with 10% [v/v] FBS) to the cells and culturing for 3 days, Wnt3a-CM was recovered.
After treating ARPE-19 cells with the Wnt3a-CM, the compound of Preparation Example 33 or the compound of Preparation Example 34 (3 or 6 μM) for 24 hours and extracting cytoplasmic proteins from the cells, the amount of β-catenin regulating the CRT (β-catenin response transcription) of the Wnt/β-catenin pathway in the cells was investigated by western blot using a β-catenin antibody (BD Transduction Laboratories, USA) and the ECL system (Santa Cruz Biotechnology).

Series [3] deals with macular edema-induced mouse model. Description: Inhibition of vascular leakage in the eye, intravitreal administration, laser-induced macular edema mouse model (FA and OCT). It counts as in vivo, C57BL/6 mouse. As to conditions: 100 ng/0.5 μL in DMSO intravitreal 24 hours after laser, read one week later, vs DMSO control group. On the procedure:
Macular edema was induced in a 10-week-old C57BL/6 mouse by irradiating a laser. After anesthetizing the mouse with ketamine (70 mg/kg) and xylazine (30 mg/kg), the pupil was dilated with 1% tropicamide. Hydroxypropylmethyl cellulose was dropped onto the eye and a microscope cover glass was used as a contact lens. Then, five laser burns were made in the space between the blood vessels around the optic disc (Zeiss 1149-630, laser power 180 mW, duration 0.1 s, spot size 50 μm). In this state, the blood vessel size and permeability were investigated by fluorescein angiography (FA) and optical coherence tomography (OCT). 24 hours after the laser irradiation, 0.5 μL of DMSO (dimethyl sulfoxide) was injected to a control group and 100 ng/0.5 μL of the Preparation Example 33 compound dissolved in DMSO was injected to a test group, into the vitreous cavity of the mouse. One week later, fluorescein angiography and optical coherence tomography were conducted again.

Series [4] concerns C57BL/6J mice. Put plainly: Tissue toxicity, long-term (8 weeks) administration: blood GPT, BUN, liver and kidney sections. It counts as in vivo, C57BL/6J mouse. To be noted: different doses for 8 weeks. On the procedure: A long-term toxicity test was conducted by administering the compound of Preparation Example 33 at different doses to C57BL/6J mice (10 mice per group) for 8 weeks. In order to investigate the effect on different organs (tissues) of the animals, blood was taken from the animals of the test group to which the compound of Preparation Example 33 was administered and the control group to which only PEG 400:Tween 80:ethanol (8:1:1, v:v:v) was administered 8 weeks later and the level of GPT (glutamate-pyruvate transferase) and BUN (blood urea nitrogen) in the blood was measured using Select E (Vital Scientific NV, Netherlands).

Series [5] is described as follows: In vivo PK after oral administration: concentration in blood plasma and eye (LC-MS/MS). To be noted: 10 mg/kg oral gavage, plasma and eye at 0.5 hour and 2 hours. Set-up: species or system ICR mouse. As for the experimental part:
Male ICR mice (8 weeks, 30-35 g) were purchased from Samtako Co. (Osan, Korea). The test animals were acclimatized for a week under the following conditions: temperature 23±2° C., relative humidity 55±10%, illumination intensity 150-300 lux, ventilation frequency 15-20 times/h, illumination cycle 12 h (07:00-19:00). All the animal experiments were approved by the Animal Care and Use Committee of Kyungpook National University (Study No. 2016-0043).
The mice were fasted for 12 hours before drug administration. Feed and water were supplied ad libitum. The compound of Preparation Example 33 was dissolved in DW:PEG 400 (=60:40 (v/v)) and administered by oral gavage at a dose of 10 mg/kg.
0.5 hour and 2 hours after the oral administration, blood samples were taken from the abdominal artery. […] of a plasma sample obtained after centrifuging the blood sample at 13,000 rpm for 5 minutes was stored at −80° C. until use for analysis. […]
In order to investigate the distribution of the compound of the present disclosure in the target tissue, the compound was orally administered at a dose of 10 mg/kg and the concentration of the compound in the blood plasma and eye was measured. The sampling times were determined as 0.5 hour and 2 hours based on the peak plasma concentration and the distribution phase. […]

Series [6] has as its system macular edema-induced mouse model. Description: Inhibition of vascular leakage in the retina, intraperitoneal administration, laser-induced macular edema mouse model (OCT). It counts as in vivo, C57BL/6 mouse. As to conditions: 1 mg/kg intraperitoneal every day for 7 days, OCT on day 6, vs vehicle. On the procedure:
After inducing macular edema in a C57BL/6 mouse and intraperitoneally administering the compound of Preparation Example 33, vascular leakage in the retina was investigated.
Briefly, after anesthetizing an 8-to-12-week-old C57BL/6 mouse with Zoletil (40 mg/kg) and xylazine (5 mg/kg), the pupil was dilated with 1% tropicamide. Hydroxypropylmethyl cellulose was dropped onto the eye and a microscope cover glass was used as a contact lens. Then, 3-5 laser burns were made in the space between the retinal blood vessels around the optic disc (Zeiss 1149-630, laser power 200 mW, duration 0.05 s, spot size 50 μm).
After the laser irradiation, 10 mL/kg of distilled water as a vehicle was intraperitoneally administered to a control group (FIG. 5, A) and 1 mg/kg of the compound of Preparation Example 33 (dissolved distilled water) was intraperitoneally administered to a test group (FIG. 5, B) every day for 7 days. On day 6, 10% sodium fluorescein was intraperitoneally administered and optical coherence tomography was conducted.

As to `C=C1CCCC2C1(C)CCC(C)C2(C)CC1=C2OC(C)(C)N=C2C=C(OC)C1=O` [Preparation Example 30, 18-methoxy-22,22-dimethyl-16-[{(5R,8S,9R,10S)-5,8,9-trimethyl-4-methylenedecahydronaphthalen-9-yl}methyl]benzo[d]-oxazol-17(2H)-one], the “level of β-catenin in the cytoplasm (western blot)” value (shortened to “level of β-catenin in the cytoplasm”) in series [1] (compound 10, 20 or 40 μM) is reported as “decreased level of β-catenin”.

With `C=C1CCCC2C1(C)CCC(C)C2(C)Cc1c(O)c(OC)cc2nc(C)oc12` [Preparation Example 31, 18-methoxy-22-methyl-16-[{(5S,8S,9R,10S)-5,8,9-trimethyl-4-methylenedecahydronaphthalen-9-yl}methyl]benzo[d]-oxazol-17-ol], the “level of β-catenin in the cytoplasm” value in series [1] (compound 10, 20 or 40 μM) is “decreased level of β-catenin”.

On to `C=C1CCCC2C1(C)CCC(C)C2(C)CC1=C(O)C(=O)C=C(NCCc2ccccc2)C1=O` (stereo not drawn) [Preparation Example 32], for which the “level of β-catenin in the cytoplasm” value in series [1] (compound 10 or 20 μM) was “decreased level of β-catenin”.

Regarding `C=C1CCC[C@H]2[C@](C)(CC3=C(O)C(=O)C=C(OC)C3=O)[C@@H](C)CC[C@]12C` [Preparation Example 33, 3-[[(1R,2S,4aS,8aS)-1,2,4a-trimethyl-5-methylidene-3,4,6,7,8,8a-hexahydro-2H-naphthalen-1-yl]methyl]-2-hydroxy-5-methoxycyclohexa-2,5-diene-1,4-dione], the “level of β-catenin in the cytoplasm” value in series [2] is on record as “decreased level of β-catenin”. In series [3], the “vascular leakage (fluorescein angiography and optical coherence tomography)” value was “distinctly decreased vascular leakage”. In series [4], the “liver and kidney tissue sections under optical microscope” value is “no special abnormality”. In addition, in series [4] (related with kidney toxicity), the “BUN (blood urea nitrogen) in the blood, control group vs test group” value is on record as “no significant difference”. In addition, the “GPT (glutamate-pyruvate transferase) in the blood, control group vs test group” value in series [4] (related with liver toxicity) was “no significant difference”. In series [5], the “distribution in the eye after oral administration” value is recorded as “highly targeted in the eye” and the “permeability for the target tissue (eye)” value is recorded as “high permeability”. Also, the “vascular leakage (optical coherence tomography)” value in series [6] was “inhibited vascular leakage”.

Turning to `C=C1CCC[C@@H]2[C@@](C)(CC3=C(O)C(=O)C=C(OCC)C3=O)[C@H](C)CC[C@@]12C` [Preparation Example 34, 3-[[(1S,2R,4aR,8aR)-1,2,4a-trimethyl-5-methylidene-3,4,6,7,8,8a-hexahydro-2H-naphthalen-1-yl]methyl]-5-ethoxy-2-hydroxycyclohexa-2,5-diene-1,4-dione], the “level of β-catenin in the cytoplasm” value in series [2] is on record as “decreased level of β-catenin”.

The record behind these values is patent US10918625B2, “Use of sesquiterpene derivative” (KOOKMIN UNIVERSITY INDUSTRY ACADEMY COOPERATION FOUNDATION, priority 2016, dated 2021).
